What all share (format): physicochemical
Data set [1] is described as follows: Spectrophotometric testing: dye hue (λmax and half-bandwidth). The following applies: dye image, density about 1.0, C41 processing. The protocol:
(§1) Each coupler of the invention and each comparison coupler was dissolved in half its weight of tricresylphosphate as the coupler solvent using 2-(2-butoxyethoxy)ethyl acetate as the auxiliary solvent. The coupler was dispersed in a gelatin solution and the auxiliary solvent was removed by evaporation under reduced pressure.
(§2) Experimental photographic coatings were prepared by coating a cellulose acetate film support with a photosensitive layer comprising a dispersion of the coupler as formulated above coated at a laydown of 1.04 mmol m^-2, a silver chlorobromide emulsion at 1.61 gm^-2 Ag, gelatin at 2.42 gm^-2 and a hardener at 0.06 gm^-2. An overcoat containing gelatin at 1.5 gm^-2 was applied to the photosensitive layer.
(§3) The dried experimental coating was then slit and chopped into test strips.
(§4) The test strips were exposed through a neutral density step-wedge test object. The strips were then processed through a standard C41 processing cycle as described in the British Journal of Photographic Annual 1977, pages 204-5. The processed strips were then dried to give stepped dye images.
(§5) Test strips were exposed as above through a step-wedge test object and appropriate filters to give to give an optical density of about 1.0. The strips were processed using the standard conditions described above and samples cut from the dye image step with density closest to 1.0. Visible absorption spectra (normalized to 1.0 density) were obtained using a spectrophotometer.
Dye hues are expressed in terms of the wavelength corresponding to the maximum absorption peak (λmax) and the half-bandwidth (HBW) calculated from the spectrophotometric curves.
(§6) In the following Examples, Couplers 1 to 6 are as defined above. Comparison Couplers C-1 to C-6 have the same structures as Couplers 1 to 6, respectively, except that the silyl group is replaced by a hydrogen atom. For example, Coupler C-1 has the structure depicted by Formula I wherein Q=C1 and R=H.

Data set [2] in a line: Solubility of the coupler in di-n-butylphthalate coupler solvent (dye dispersibility).
Excerpt: as §6

Data set [3] can be described thus: Dye stability testing: dark keeping, dark/wet fade. The following applies: dye image from coupler, dark oven, 60° C., 70% relative humidity, fractional density change at absorption maximum. The protocol: as §1, §2, §3, §4, §5
Dye sample patches having a density of about 1.0 were prepared as for spectrophotometric testing and their absorption spectram measured as above.
[…] The spectrophotometric curves of the samples were then remeasured and the degree of fade quoted as the fractional decrease in density at the absorption maximum relative to the initial density prior to fading. The results are presented as dark/wet fade data.
as §6

Here are results for six molecules from patent US4973545A, “Photographic couplers with aryloxysilyl groups” (Eastman Kodak Company, priority 1988, dated 1990).

In data set [1], `CCCCCCCCCCC(Oc1ccc(S(=O)(=O)c2ccc(O[Si](C)(C)C(C)(C)C)cc2)cc1)C(=O)Nc1ccc(Cl)c(NC2=NN(c3c(Cl)cc(Cl)cc3Cl)C(=O)C2)c1` (stereo not drawn) [Coupler 4] yielded an HBW (half-bandwidth) of dye absorption of 84.5 nm and a λmax of dye of 541.5.

With `CCCCCCCCCCC(Oc1ccc(S(=O)(=O)c2ccc(O)cc2)cc1)C(=O)Nc1ccc(CCCc2n[nH]c3c(Cl)c(C)nn23)cc1` (stereo not drawn) [Coupler C-1], the Solubility entry in data set [2] (20 mg in 1 ml di-n-butylphthalate, 2 min on steam bath at 80° C.) is “soluble”. For the same molecule, in data set [2] (40 mg in 1 ml di-n-butylphthalate, 6 min on steam bath at 80° C.), the Solubility result is “soluble”. For the same molecule, the Solubility entry in data set [2] (100 mg in 1 ml di-n-butylphthalate, 6 min on steam bath at 80° C.) was “insoluble”. Also, in data set [3], the “Dark/Wet Fade, 1 wk” value was “+0.07”; the “Dark/Wet Fade, 3 wk” value is “+0.06”; the “Dark/Wet Fade” value is recorded as “+0.05”. For the same molecule, in data set [1], the HBW (half-bandwidth) of dye absorption was 89.5 nm and the λmax of dye was found to be 553.

Take `CCCCCCCCCCC(Oc1ccc(S(=O)(=O)c2ccc(O[Si](C)(C)C(C)(C)C)cc2)cc1)C(=O)Nc1ccc(CCCc2n[nH]c3c(Cl)c(C)nn23)cc1` (stereo not drawn) [Coupler 1]: the Solubility entry in data set [2] (80 mg in 0.05 ml di-n-butylphthalate, 1 min on steam bath at 80° C.) is reported as “soluble”. Further, in data set [2] (80 mg in 0.1 ml di-n-butylphthalate, 1 min on steam bath at 80° C.), the Solubility entry is listed as “soluble”. The “Solubility relative to Coupler C-1” value in data set [2] (compared with Coupler C-1 under these conditions (di-n-butylphthalate, steam bath 80° C.)) was “greater than ten times more soluble”. In data set [3], the “Dark/Wet Fade, 1 wk” value is given as “+0.02”; the “Dark/Wet Fade, 3 wk” value is 0.00; the “Dark/Wet Fade” value is on record as “+0.01”. Also, in data set [1], the HBW (half-bandwidth) of dye absorption was 86.5 nm and the λmax of dye is recorded as 548.5.

For `CCCCCCCCCCCCC(Oc1ccc(O)c(C(C)(C)C)c1)C(=O)Nc1ccc(Cl)c(NC2=NN(c3c(Cl)cc(Cl)cc3Cl)C(=O)C2)c1` (stereo not drawn) [Coupler C-3], in data set [3], the “Dark/Wet Fade, 1 wk” value is reported as -0.04; the “Dark/Wet Fade, 3 wk” value is given as -0.09; the “Dark/Wet Fade” value is recorded as -0.08. In data set [1], this molecule displayed an HBW (half-bandwidth) of dye absorption of 82 nm and a λmax of dye of 544.5.

In data set [1], `CCCCCCCCCCC(Oc1ccc(S(=O)(=O)c2ccc(O)cc2)cc1)C(=O)Nc1ccc(Cl)c(NC2=NN(c3c(Cl)cc(Cl)cc3Cl)C(=O)C2)c1` (stereo not drawn) [Coupler C-4] returned an HBW (half-bandwidth) of dye absorption of 92 nm and a λmax of dye of 545.5.

With `CCCCCCCCCCCCC(Oc1ccc(O[Si](C)(C)C(C)(C)C)c(C(C)(C)C)c1)C(=O)Nc1ccc(Cl)c(NC2=NN(c3c(Cl)cc(Cl)cc3Cl)C(=O)C2)c1` (stereo not drawn) [Coupler 3], in data set [3], the “Dark/Wet Fade, 1 wk” value is recorded as -0.02; the “Dark/Wet Fade, 3 wk” value is -0.09; the “Dark/Wet Fade” value is -0.04. Besides, in data set [1], the HBW (half-bandwidth) of dye absorption is 78.5 nm and the λmax of dye turned out to be 539.5.
